The target in series [1] is T1, SGLT2 (Homo sapiens, UniProt P31639).
T1 construct: host or cells: CHO
T1 sequence (P31639 1-672): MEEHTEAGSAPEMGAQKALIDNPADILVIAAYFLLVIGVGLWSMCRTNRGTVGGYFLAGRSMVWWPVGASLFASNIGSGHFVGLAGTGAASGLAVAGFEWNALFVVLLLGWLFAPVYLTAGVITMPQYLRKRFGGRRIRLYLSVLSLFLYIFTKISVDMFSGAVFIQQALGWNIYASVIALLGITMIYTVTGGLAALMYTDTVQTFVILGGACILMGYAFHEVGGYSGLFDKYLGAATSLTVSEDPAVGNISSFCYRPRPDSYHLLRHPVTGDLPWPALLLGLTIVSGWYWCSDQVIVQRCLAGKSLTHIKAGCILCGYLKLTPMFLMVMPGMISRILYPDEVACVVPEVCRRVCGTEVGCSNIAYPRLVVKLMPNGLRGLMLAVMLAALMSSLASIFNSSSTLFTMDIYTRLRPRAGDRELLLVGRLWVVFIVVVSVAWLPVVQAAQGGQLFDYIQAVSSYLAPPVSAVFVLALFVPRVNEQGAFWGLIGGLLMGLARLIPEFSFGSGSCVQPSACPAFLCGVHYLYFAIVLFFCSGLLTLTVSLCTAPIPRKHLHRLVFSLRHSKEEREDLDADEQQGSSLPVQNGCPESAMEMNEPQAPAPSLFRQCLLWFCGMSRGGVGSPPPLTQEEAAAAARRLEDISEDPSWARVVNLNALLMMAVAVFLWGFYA
The series can be described thus: Time dependency of SGLT2 inhibition (preincubation) in CHO-SGLT2 cells. The settings on record: for IC50: 10 μM [14C]AMG, 2 h, CHO-SGLT2; for Time dependency of SGLT2 inhibition: pretreatment 0, 1, 2 h. The series is classed as cell-based. The procedure: After 2 h of incubation, the radioactivity of the cell lysate was measured following the same sample preparation method described above.

Another series deals with T2, SGLT1 (Homo sapiens, UniProt P13866).
T2 construct: host or cells: CHO
T2 sequence (P13866 1-664): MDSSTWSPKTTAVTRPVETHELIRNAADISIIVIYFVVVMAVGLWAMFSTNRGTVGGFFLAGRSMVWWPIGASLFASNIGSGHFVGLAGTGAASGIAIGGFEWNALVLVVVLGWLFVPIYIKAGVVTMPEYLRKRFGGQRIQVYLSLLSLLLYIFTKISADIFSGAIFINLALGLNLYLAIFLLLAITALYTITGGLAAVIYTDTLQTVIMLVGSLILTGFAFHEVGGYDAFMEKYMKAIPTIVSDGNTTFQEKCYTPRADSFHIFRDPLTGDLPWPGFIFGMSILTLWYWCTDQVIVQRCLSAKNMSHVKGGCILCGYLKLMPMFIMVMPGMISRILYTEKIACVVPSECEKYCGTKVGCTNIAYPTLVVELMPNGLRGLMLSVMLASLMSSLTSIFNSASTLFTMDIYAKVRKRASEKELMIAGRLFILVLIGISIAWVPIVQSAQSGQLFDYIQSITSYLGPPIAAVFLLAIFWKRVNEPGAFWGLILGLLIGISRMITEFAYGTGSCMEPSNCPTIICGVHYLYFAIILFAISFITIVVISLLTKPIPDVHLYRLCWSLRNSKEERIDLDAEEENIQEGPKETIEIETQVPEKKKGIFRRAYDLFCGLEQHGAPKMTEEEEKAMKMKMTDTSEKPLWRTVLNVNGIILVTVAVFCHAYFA
In words: Inhibition of [14C]AMG uptake in CHO-SGLT1 cells. The series is classed as cell-based. The settings on record: 10 μM [14C]AMG uptake, 2 h, CHO-SGLT1 minus mock; mean ± SD, triplicate. The procedure: CHO cells overexpressing SGLT1 and SGLT2 cells (CHO-SGLT1 and -SGLT2) and CHO-mock cells were characterized as previously described. Cells were maintained in RPMI1640 medium supplemented with 10% fetal bovine serum and 200 µg/mL G418 at 37 °C in 5% CO2 conditions. CHO-SGLT1 and -SGLT2 cells were seeded at a density of 1 × 10^5 cells/well in 96-well plates. After 24 h, the growth medium was discarded from the cells, and the cells were washed with pre-warmed Na^+-free buffer (10 mM HEPES, 5 mM Tris, 140 mM choline chloride, 2 mM KCl, 1 mM CaCl2, 1 mM MgCl2, pH7.4) and incubated for 1 h in Na^+-free buffer. After replacing Na^+-free buffer with Na^+ gradient buffer (10 mM HEPES, 5 mM Tris, 140 mM NaCl, 2 mM KCl, 1 mM CaCl2, 1 mM MgCl2, pH7.4) containing 10 µM [^14C]AMG, the uptake of [^14C]AMG into the CHO-mock cells and CHO-SGLT1 and -SLGT2 cells was measured for 0.5, 1, 1.5, 2, and 3 h. After a predetermined incubation time, cells were washed three times with 200 µL of ice-cold Na^+-free buffer immediately after placing the plates on ice. Then, the cells were lysed with 10% SDS, and the cell lysates were mixed with Optiphase cocktail solution. Thereafter, the radioactivity of the cell lysates was measured using a liquid scintillation counter.
After 2 h, cells were washed three times with 200 µL of ice-cold Na^+-free buffer and the cells were lysed with 10% SDS (40 µL), followed by adding Optiphase cocktail solution (200 µL). The radioactivity of the cell lysates was measured using a liquid scintillation counter. The SGLT1 or SGLT2-mediated uptake of [^14C]AMG was calculated by the subtraction of the uptake rates of [^14C]AMG into the mock cells from those of the CHO-SGLT1 and -SLGT2 cells. In the inhibition studies, the percentages of the transport rate of AMG with or without SGLT2 inhibitors were calculated and the data were fitted to an inhibitory effect model. The IC50 (the concentration of the inhibitor to show half-maximal inhibition) values were calculated using Sigma Plot ver.10.0 (Systat Software, Inc.; San Jose, CA, USA).

Series [2] has as its target T1, SGLT2. In words: Mode of inhibition on SGLT2 (Dixon plots) in CHO-SGLT2 cells. The series is classed as cell-based. The settings on record: 1, 2.5, 5, 50 μM [14C]AMG. On the procedure:
The radioactivity of the cell lysate was measured following the same sample preparation method described above.

On the set-up of series [3]: method as in PMID 27430987. Conditions: cited from earlier work.
The conditions of series [4]: mouse, in vivo, po, 1 mg/kg.
Experimental: (§1) An aliquot (30 µL) of each plasma sample was stored at −80 °C until the analysis. […] An aliquot (50 µL) of each kidney homogenate sample was stored at −80 °C until the analysis.
(§2) For the analysis of SGLT2 inhibitors, aliquots of plasma (30 µL) and kidney homogenate (50 µL) were added to 100 μL of aqueous solution of D4-DWP16001 (IS, 20 ng/mL), and vigorously mixed with 500 μL methyl tert-butyl ether (MTBE) for 15 min. After centrifugation at 16,000 g for 5 min, samples were kept for 1 h at −80 °C to make an aqueous layer freeze. An organic upper layer was transferred to a clean tube and evaporated to dryness under a gentle stream of nitrogen. Then, the dried extract was reconstituted in 150 µL of mobile phase, and a 3 µL aliquot of the reconstituent was injected into a liquid chromatography–tandem mass spectrometry (LC–MS/MS) system.
(§3) Pharmacokinetic parameters, such as the area under plasma concentration-time curve from zero to infinity (AUC), were calculated from plasma concentration vs time curves using non-compartment analysis with WinNonlin (version 5.1; Pharsights, Cary, NC, USA). The AUC ratios (i.e., ratios of kidney AUC to plasma AUC) were calculated by dividing the AUC of the three SGLT2 inhibitors in the kidney by the plasma AUC values of the three SGLT2 inhibitors.
Series [5] is described as follows: Protein binding in mouse plasma (rapid equilibrium dialysis). The settings on record: 1000 ng/mL, 4 h at 37 °C, mean ± SD, triplicate. Background: Equilibrium dialysis compares concentrations on both sides of a semipermeable membrane.
Experimental: Four hours after incubation at 37 °C on a shaking incubator at 300 rpm, aliquots (50 μL) were collected from both the sample and buffer chambers and treated with equal volumes of fresh PBS and blank plasma or blank kidney homogenate, respectively, to match the sample matrices. The matrix-matched sample (100 μL) was added 100 μL of aqueous solution of D4-DWP16001 (IS, 20 ng/mL), and vigorously mixed with 1000 μL MTBE for 15 min. After centrifugation at 16,000 g for 5 min, samples were kept for 1 h at −80 °C. An organic upper layer was transferred to a clean tube and evaporated to dryness under a gentle stream of nitrogen. Then, the dried extract was reconstituted in 300 µL of mobile phase and a 3 µL aliquot of the reconstituent was injected into the LC-MS/MS system.
Plasma protein binding was calculated using the following Equation (1) [6, 7]. (1) Undiluted free drug fraction (fu)=Drug concentration in buffer chamber/Drug concentration in plasma sample chamber
Series [6] in a line: logP (partition coefficient of n-octanol/water).
The nature of series [7]: Pharmacokinetic study and kidney distribution after single oral administration in ICR mice.
Experimental: as §1, §2, §3
The mark [8] stands for this setting: without preincubation, read-out: IC50 (0 h).
The mark [9] stands for this setting: ICR, mouse, plasma, po, 1 mg/kg.

Like-named read-outs stand apart in the source and are kept apart here.

In the case of `OC[C@H]1O[C@@H](c2ccc(F)c(Cc3cc4ccccc4s3)c2)[C@H](O)[C@@H](O)[C@@H]1O` [Ipragliflozin, ipragliflozin], the IC50 (as a rule, the concentration that inhibits the measured activity by half) on SGLT2 [1] (IC50 (1 h), preincubation 1 h) was 0.011 µM; on SGLT2 [1] (IC50 (2 h), preincubation 2 h), 0.0099 µM; on SGLT2 [1] (setting [8]), 0.0106 µM; against SGLT1 it was 2.33 ± 0.378 µM. Besides, the “Time dependency of SGLT2 inhibition” value on SGLT2 [1] is recorded as “time-independent”. Moreover, on SGLT2 [2], the “Mode of inhibition on SGLT2” value was “reversible and competitive”. The “Duration of increased urinary glucose excretion post dose” value in series [3] was at least 18 h. For the same molecule, the AUC72h in series [4] was 73.65 ± 7.05 μg∙h/g tissue.
`OC[C@H]1O[C@@H](c2cc(Cc3ccc(C4CC4)cc3)c(Cl)c3c2CCO3)[C@H](O)[C@@H](O)[C@@H]1O` [DWP16001]: the IC50 at SGLT2 [1] (IC50 (1 h), preincubation 1 h) stood at 0.0007 µM; at SGLT2 [1] (IC50 (2 h), preincubation 2 h) it was 0.0008 µM; on SGLT2 [1] (setting [8]), 0.0007 µM; on SGLT1, 0.549 ± 0.14 µM. The “Time dependency of SGLT2 inhibition” value on SGLT2 [1] is recorded as “time-independent”. Moreover, the “Protein Binding (% Bound) Plasma” value in series [5] is on record as 98.50 ± 0.20 % Bound. Besides, the “Mode of inhibition on SGLT2” value on SGLT2 [2] is “reversible and competitive”. The logP (as a rule, a log measure of how a compound divides between an organic and an aqueous phase) in series [6] came out at 2.65. In addition, in series [7] (ICR, mouse, kidney homogenate and plasma, po, 1 mg/kg), the Kp (usually tissue or fluid exposure divided by exposure in the circulation) turned out to be 85 ± 16.1. For the same molecule, the half-life (commonly the time in which the quantity being followed falls by half) in series [7] (ICR, mouse, kidney, po, 1 mg/kg, t1/2, kidney, single oral 1 mg/kg, ICR mice, mean ± SD, five mice) is 126 ± 80.4 h; in series [7] (ICR, mouse, plasma, po, 1 mg/kg, t1/2, plasma, single oral 1 mg/kg, ICR mice, mean ± SD, five mice) it was 3.8 ± 1.4 h. In series [7] (setting [9]), the AUC(0-inf) (as a rule, the area under the concentration-time curve extrapolated to infinity) was determined as 1730 ± 340 ng·h/mL. For the same molecule, the AUC(0-t) – broadly, exposure summed from dosing to a finite time, without extrapolation to infinity – in series [7] (setting [9]) was 1690 ± 340 ng·h/mL. Also, the Cmax – broadly, the highest concentration seen after dosing – in series [7] (setting [9]) was 371 ± 109 ng/mL. In addition, the Tmax (as a rule, the time at which the peak concentration occurs) in series [7] (setting [9]) was determined as 0.7 ± 0.3 h. In addition, in series [7] (kidney, single oral 1 mg/kg, ICR mice, mean ± SD, five mice), the AUC72h came out at 139.2 ± 5.19 μg∙h/g tissue.

Values taken from paper PMC7151106 (Pharmaceutics, 2020).
